Data as given in patent publication US20240043404A1 (AbbVie Inc., priority 2009, published 2024).
Read-outs that look alike come from different tables or passages of the source.

Tested on: RS4;11 cells
Experiment: RS4;11 cell viability assay (CellTiter Glo);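 also: acute lymphoblastic leukemia line RS4,11, EC50 derived from percentage of viable cells after treatment relative to untreated controls, cell killing taken as a measure of Bcl-2 inhibition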
Type: cell-based, human
Conditions: Homo sapiens, read-out: RS4
[1] = RS4-11, 48 h, 50,000 cells per well, 10% human serum, 48 hours, 11 EC50 Values
[2] = RS4-11, Table 5, direct comparison Z=N with corresponding analogs Z=C, 11 EC50

Protocol: The acute lymphoblastic leukemia (ALL) cell line RS4;11 was used as the primary human cell line to assess the cellular activity of Bcl-2 selective agents in vitro and their efficacy in vivo.
Cell cytotoxicity EC50 values were assessed using CellTiter Glo (Promega) according to the manufacturer's recommendations. The EC50 values were determined as a percentage of viable cells following treatment compared to the untreated control cells.

Structure (SMILES) | EC50 [1] [nM] | EC50 [2] [nM] | EC50 (RS4-11, Table 4, selected compounds in U.S. Pat. Application No. 12/631404, 11 EC50) [nM]
CC1(C)CCC(CN2CCN(c3ccc(C(=O)NS(=O)(=O)c4ccc(NN5CCN(C6CCOCC6)CC5)c([N+](=O)[O-])c4)c(Oc4cnc5[nH]ccc5c4)c3)CC2)=C(c2ccc(Cl)cc2)C1 [Example 237, 4-(4-{[2-(4-chlorophenyl)-4,4-dimethylcyclohex-1-en-1-yl]methyl}piperazin-1-yl)-N-[(3-nitro-4-{[4-(tetrahydro-2H-pyran-4-yl)piperazin-1-yl]amino}phenyl)sulfonyl]-2-(1H-pyrrolo[2,3-b]pyridin-5-yloxy)benzamide] | 53.2 | – | –
CC1(C)CCC(CN2CCN(c3ccc(C(=O)NS(=O)(=O)c4ccc(NCC5CCOCC5)c([N+](=O)[O-])c4)c(Oc4ccc5[nH]ccc5c4)c3)CC2)=C(c2ccc(Cl)cc2)C1 [Example 18, 4-(4-{[2-(4-chlorophenyl)-4,4-dimethylcyclohex-1-en-1-yl]methyl}piperazin-1-yl)-2-(1H-indol-5-yloxy)-N-({3-nitro-4-[(tetrahydro-2H-pyran-4-ylmethyl)amino]phenyl}sulfonyl)benzamide] | 86 | 86 | –
O=C(NS(=O)(=O)c1ccc(N[C@H]2CC[C@H](N3CCOCC3)CC2)c([N+](=O)[O-])c1)c1ccc(N2CCN(CC3=C(c4ccc(Cl)cc4)CCC4(CCCC4)C3)CC2)cc1Oc1cnc2[nH]ccc2c1 [Example 71, Trans-4-(4-{[8-(4-chlorophenyl)spiro[4.5]dec-7-en-7-yl]methyl}piperazin-1-yl)-N-({4-[(4-morpholin-4-ylcyclohexyl)amino]-3-nitrophenyl}sulfonyl)-2-(1H-pyrrolo[2,3-b]pyridin-5-yloxy)benzamide] | 91.6 | – | –
CC1(C)CCC(CN2CCN(c3ccc(C(=O)NS(=O)(=O)c4cnc(OC[C@@H]5CN(C6CC6)CCO5)c(Cl)c4)c(Oc4cnc5[nH]ccc5c4)c3)CC2)=C(c2ccc(Cl)cc2)C1 [Example 314, N-[(5-chloro-6-{[(2S)-4-cyclopropylmorpholin-2-yl]methoxy}pyridin-3-yl)sulfonyl]-4-(4-{[2-(4-chlorophenyl)-4,4-dimethylcyclohex-1-en-1-yl]methyl}piperazin-1-yl)-2-(1H-pyrrolo[2,3-b]pyridin-5-yloxy)benzamide] | 660 | – | –
O=C(NS(=O)(=O)c1ccc(NCC2CCOCC2)c([N+](=O)[O-])c1)c1ccc(N2CCN(CC3=C(c4ccc(Cl)cc4)CCC(CF)(CF)C3)CC2)cc1Oc1cnc2[nH]ccc2c1 [Example 353, 4-(4-{[2-(4-chlorophenyl)-5,5-bis(fluoromethyl)cyclohex-1-en-1-yl]methyl}piperazin-1-yl)-N-({3-nitro-4-[(tetrahydro-2H-pyran-4-ylmethyl)amino]phenyl}sulfonyl)-2-(1H-pyrrolo[2,3-b]pyridin-5-yloxy)benzamide] | 5.05 | – | –
CC(C)N1CCC2(CCC(c3ccc(Cl)cc3)=C(CN3CCN(c4ccc(C(=O)NS(=O)(=O)c5ccc(NCC6CCOCC6)c(C(F)(F)F)c5)c(Oc5cnc6[nH]ccc6c5)c4)CC3)C2)CC1 [Example 273, 4-(4-{[9-(4-chlorophenyl)-3-isopropyl-3-azaspiro[5.5]undec-8-en-8-yl]methyl}piperazin-1-yl)-2-(1H-pyrrolo[2,3-b]pyridin-5-yloxy)-N-({4-[(tetrahydro-2H-pyran-4-ylmethyl)amino]-3-(trifluoromethyl)phenyl}sulfonyl)benzamide] | 209 | – | –
CC1(C)CCC(CN2CCN(c3ccc(C(=O)NS(=O)(=O)c4ccc(NCCC(F)(F)F)c([N+](=O)[O-])c4)c(Oc4cnc5[nH]ccc5c4)c3)CC2)=C(c2ccc(Cl)cc2)C1 [Example 27, 4-(4-{[2-(4-chlorophenyl)-4,4-dimethylcyclohex-1-en-1-yl]methyl}piperazin-1-yl)-N-({3-nitro-4-[(3,3,3-trifluoropropyl)amino]phenyl}sulfonyl)-2-(1H-pyrrolo[2,3-b]pyridin-5-yloxy)benzamide] | 332 | – | –

Continued, values first:

EC50 [1] [nM] | EC50 [2] [nM] | EC50 (RS4-11, Table 4, selected compounds in U.S. Pat. Application No. 12/631404, 11 EC50) [nM] | Structure (SMILES)
7.29 | – | – | CC(C)N1CCC2(CCC(c3ccc(Cl)cc3)=C(CN3CCN(c4ccc(C(=O)NS(=O)(=O)c5ccc(NCC6CCOCC6)c([N+](=O)[O-])c5)c(Oc5cnc6[nH]ccc6c5)c4)CC3)C2)CC1 [Example 266, 4-(4-{[9-(4-chlorophenyl)-3-isopropyl-3-azaspiro[5.5]undec-8-en-8-yl]methyl}piperazin-1-yl)-N-({3-nitro-4-[(tetrahydro-2H-pyran-4-ylmethyl)amino]phenyl}sulfonyl)-2-(1H-pyrrolo[2,3-b]pyridin-5-yloxy)benzamide]
200 | – | – | CC1(C)CCC(CN2CCN(c3ccc(C(=O)NS(=O)(=O)c4cc(Cl)c(NCC5CCOCC5)c(C#N)c4)c(Oc4cnc5[nH]ccc5c4)c3)CC2)=C(c2ccc(Cl)cc2)C1 [Example 52, N-({3-chloro-5-cyano-4-[(tetrahydro-2H-pyran-4-ylmethyl)amino]phenyl}sulfonyl)-4-(4-{[2-(4-chlorophenyl)-4,4-dimethylcyclohex-1-en-1-yl]methyl}piperazin-1-yl)-2-(1H-pyrrolo[2,3-b]pyridin-5-yloxy)benzamide]
889 | – | – | COCCOc1ncc(S(=O)(=O)NC(=O)c2ccc(N3CCN(CC4=C(c5ccc(Cl)cc5)CC(C)(C)CC4)CC3)cc2Oc2cnc3[nH]ccc3c2)cc1Cl [Example 292, N-{[5-chloro-6-(2-methoxyethoxy)pyridin-3-yl]sulfonyl}-4-(4-{[2-(4-chlorophenyl)-4,4-dimethylcyclohex-1-en-1-yl]methyl}piperazin-1-yl)-2-(1H-pyrrolo[2,3-b]pyridin-5-yloxy)benzamide]
> 1000 | – | – | COCCN1CCCC(CNc2ccc(S(=O)(=O)NC(=O)c3ccc(N4CCN(CC5=C(c6ccc(Cl)cc6)CC(C)(C)CC5)CC4)cc3Oc3cnc4[nH]ccc4c3)cc2[N+](=O)[O-])C1 (stereo not shown) [Example 228, 4-(4-{[2-(4-chlorophenyl)-4,4-dimethylcyclohex-1-en-1-yl]methyl}piperazin-1-yl)-N-{[4-({[1-(2-methoxyethyl)piperidin-3-yl]methyl}amino)-3-nitrophenyl]sulfonyl}-2-(1H-pyrrolo[2,3-b]pyridin-5-yloxy)benzamide]
1.85 | – | – | CC1(C)CCC(CN2CCN(c3ccc(C(=O)NS(=O)(=O)c4ccc(N[C@H]5CC[C@@H](NC6CC6)CC5)c([N+](=O)[O-])c4)c(Oc4cnc5[nH]ccc5c4)c3)CC2)=C(c2ccc(Cl)cc2)C1 [Example 122, Cis-4-(4-{[2-(4-chlorophenyl)-4,4-dimethylcyclohex-1-en-1-yl]methyl}piperazin-1-yl)-N-[(4-{[4-(cyclopropylamino)cyclohexyl]amino}-3-nitrophenyl)sulfonyl]-2-(1H-pyrrolo[2,3-b]pyridin-5-yloxy)benzamide]
191 | 191 | 191 | COCCNc1ccc(S(=O)(=O)NC(=O)c2ccc(N3CCN(CC4=C(c5ccc(Cl)cc5)CC(C)(C)CC4)CC3)cc2Oc2ccc3[nH]ccc3c2)cc1[N+](=O)[O-] [Example 20, 4-(4-{[2-(4-chlorophenyl)-4,4-dimethylcyclohex-1-en-1-yl]methyl}piperazin-1-yl)-2-(1H-indol-5-yloxy)-N-({4-[(2-methoxyethyl)amino]-3-nitrophenyl}sulfonyl)benzamide]
